Test results as given in patent publication US9669060B2, “Compositions for preventing and treating uterine disease” (CORNELL UNIVERSITY, priority 2009, dated 2017).
Converted amounts (≈) assume the structure as drawn. Like-named read-outs stand apart in the source and are kept apart here.

What was measured:
E. coli from calves = conditions: cited from earlier work
[1] = tested on: Escherichia coli isolated from the uterus of postpartum Holstein dairy cows (57 isolates); test: Kinetic (spectrophotometric) MIC and growth curve test with antimicrobials; type: cell-based; conditions: for MIC: Escherichia coli, minimum concentration that completely inhibited growth for 2-3 hours after beginning of stationary phase of control, estimated from graphics, read-out: Mean MICs; for Mean OD600: growth curve during 10 hours at 37° C., Mueller-Hinton broth
Text: Growth was periodically assessed spectrophotometrically in a microplate reader (Synergy™ 2, BioTek) at 600 nm. Curves were plotted with average of the duplicates. The results of this kinetic test were statistically analyzed to derive the mean MIC (mMIC) of the isolates for each antimicrobial tested.
A general linear mixed model was used to analyze the effect of the different antibiotic concentrations and bacteriophage MOIs on the growth curve of 57 E. coli isolates and determinate the mean values. The outcome variable was the OD600 of the Mueller-Hinton (BBL™) broth culture, which was modeled as a Gaussian (normally distributed data) variable. The assumption that the residuals were normally distributed was satisfied by visually evaluating the distribution plot of the studentized residuals. The independent variables offered to the model were: treatment (bacteriophage cocktail and all antimicrobials tested) and time (from 1 until 10). The interaction of treatment and time was also included in the model. […] This implies that data points were correlated within each E. coli isolate. To account appropriately for within correlation of the optical density, we modeled the error term by imposing a first-order autoregressive covariance structure. Variables and interaction were considered significant when their P-values<0.05.

[2] = tested on: Escherichia coli recovered from uterine secretion from Holstein dairy cows (n = 80 isolates); test: Antimicrobial susceptibility assay, MIC by broth microdilution (CLSI); type: cell-based; conditions: for MIC50 / MIC90: Escherichia coli, 18 hours at 37° C.; for MIC50: MIC that inhibits at least 50% of isolates; for MIC90: MIC that inhibits at least 90% of isolates
Description: The MIC determinations were performed by broth microdilution method as described by the Clinical and Laboratory Standards Institute (CLSI, 2008) recommendations. […] The dilutions for each antimicrobial tested ranged from 0.25 μg/ml to 256 μg/ml for all the antibiotics and all tests were performed in duplicates. The cultures were diluted in Mueller-Hinton broth to 10^5 CFU/ml and an aliquot of 200 μl of the diluted culture was added to microtiter plate wells, containing various concentrations of the antimicrobials, to a total volume of 300 μl per well. The assays were carried out in duplicates and the required controls of adequacy of the broth to support the growth of the microorganism and the sterility of the broth done.
In addition to the uterine E. coli isolates tested, the reference strain of E. coli ATCC 25922 was included as quality control for MIC determination, as recommended by the CLSI (CLSI, 2008). The MIC that inhibits at least 50% (MIC50) and at least 90% (MIC90) of the isolates, as well as the minimum and maximum MIC, were also derived.

uropathogenic E. coli = conditions: fimH immunization, murine model (Langermann et al., 1997); cited from earlier work

| Compound | occurrence of ampicillin-resistant E. coli (E. coli from calves; feces of healthy lactating dairy calves (Sawant et al., 2007)) [%] | MIC [1] [µg/mL] | Mean OD600 [1] | isolates resistant (CLSI criteria) [2] | MIC50 [2] [µg/mL] | MIC90 [2] [µg/mL] | prevalence rate of ceftiofur-resistant E. coli (E. coli from calves; Bradford et al., 1999) [%] | prevalence rate of ceftiofur-resistant E. coli (E. coli from calves; Sawant et al., 2007) [%] | occurrence of ceftiofur-resistant E. coli (E. coli from calves; diarrheic calves (White et al.)) [%] | isolates susceptible [2] [%] | E. coli isolates resistant to both florfenicol and chloramphenicol (E. coli from calves; diarrheic dairy calves (White et al., 2000)) [%] | prevention of in vivo colonization of the bladder mucosa (uropathogenic E. coli) [%] |
| --- | --- | --- | --- | --- | --- | --- | --- | --- | --- | --- | --- | --- |
| CC1(C)S[C@@H]2[C@H](NC(=O)[C@H](N)c3ccccc3)C(=O)N2[C@H]1C(=O)O [Ampicillin, ampicillin] | 48 | 16 | 0.14 | 33.7% | 16 (≈ 45.8 µM) | 32 (≈ 91.6 µM) | – | – | – | – | – | – |
| CO/N=C(\C(=O)N[C@@H]1C(=O)N2C(C(=O)O)=C(CSC(=O)c3ccco3)CS[C@H]12)c1csc(N)n1 [Ceftiofur, ceftiofur] | – | 16 | 0.05 | 1.2% | 1 (≈ 1.91 µM) | 1 (≈ 1.91 µM) | 11 | 13 | 69 | 98.7 | – | – |
| O=C(N[C@H](CO)[C@H](O)c1ccc([N+](=O)[O-])cc1)C(Cl)Cl [Chloramphenicol, chloramphenicol] | – | 128 | 0.18 | 100% | 64 (≈ 198 µM) | 128 (≈ 396 µM) | – | – | – | – | – | – |
| CS(=O)(=O)c1ccc([C@@H](O)[C@@H](CF)NC(=O)C(Cl)Cl)cc1 [Florfenicol, florfenicol] | – | 16 | 0.10 | 100% | 16 (≈ 44.7 µM) | 16 (≈ 44.7 µM) | – | – | – | – | 85 | – |
| CN[C@@H]1[C@H](O)[C@H](NC)[C@H]2O[C@@]3(O)C(=O)C[C@@H](C)O[C@H]3O[C@@H]2[C@H]1O [Spectinomycin, spectinomycin] | – | 32 | 0.17 | none of them were resistant | 32 (≈ 96.3 µM) | 64 (≈ 193 µM) | – | – | – | – | – | – |
| [H]/N=C(/N)N[C@H]1[C@H](O)[C@@H](O)[C@H](O[C@@H]2O[C@@H](C)[C@](O)(C=O)[C@H]2O[C@@H]2O[C@@H](CO)[C@H](O)[C@@H](O)[C@@H]2NC)[C@@H](N/C(N)=N\[H])[C@@H]1O [Streptomycin, streptomycin] | – | 8 | 0.11 | none of them were resistant | 8 (≈ 13.8 µM) | 8 (≈ 13.8 µM) | – | – | – | – | – | – |
| CN(C)[C@@H]1C(O)=C(C(N)=O)C(=O)[C@@]2(O)C(O)=C3C(=O)c4c(O)cccc4[C@@](C)(O)[C@H]3C[C@@H]12 [Tetracycline, tetracycline] | – | 2 | 0.05 | – | 1 (≈ 2.25 µM) | 2 (≈ 4.5 µM) | – | – | – | – | – | – |
| fimH: fimH adhesin of type 1 pili used for immunization in a murine model (Langermann et al., 1997) | – | – | – | – | – | – | – | – | – | – | – | 99 |
